Where two headings read alike, the source gives them in different places.
Experiments:
[1] = cited from earlier work
[2] = in vivo
clinical = conditions: human, in vivo
[3] = test system: circulating endothelial cells (CEC); experiment: Circulating endothelial cells by fluorescence-activated cell sorter; format: in vivo, children; conditions: paired samples (n = 21), baseline vs end of cycle 1
advanced HCCs = conditions: adults with advanced HCCs; cited from earlier work
[4] = human, in vivo
RCCs = conditions: adults with RCCs; cited from earlier work
[5] = cited from earlier work; remark: listed apart in the source
endoglin = conditions: paired samples (n = 26), baseline vs end of cycle 1
[6] = test system: circulating endothelial progenitor cells (CEPC); experiment: Circulating endothelial progenitor cells by fluorescence-activated cell sorter; format: in vivo, children; conditions: paired samples (n = 21), baseline vs end of cycle 1
[7] = test system: refractory leukemias (AML and FLT3ITD); experiment: Response evaluation, leukemias; format: in vivo, children; conditions: 2 patients with AML and FLT3ITD
refractory leukemias = conditions: cited from earlier work
[8] = cited from earlier work; remark: listed apart in the source
plasma VEGF = conditions: paired samples (n = 26), baseline vs end of cycle 1
[9] = in vivo; remark: listed apart in the source
refractory solid tumors = experiment: Response evaluation, solid tumors; format: in vivo, children
[10] = test system: placental growth factor (PlGF); experiment: Plasma PlGF by ELISA, baseline vs steady state; format: in vivo, children; conditions: at steady state vs baseline, P ≤ 0.001
multiple tumor types = conditions: cited from earlier work

CNC(=O)c1cc(Oc2ccc(NC(=O)Nc3ccc(Cl)c(C(F)(F)F)c3)cc2)ccn1 [Sorafenib]
in vitro activity [1]: low micromolar concentrations | Anorexia grade 2 (non-DLT) ([2]; human): 1 | Headache grade 2 (non-DLT) ([2]; human): 1 | Hyperglycemia grade 1 (non-DLT) ([2]; human): 1 | Hypocalcemia grade 2 (non-DLT) ([2]; human): 1 | Hypokalemia grade 3 (non-DLT) ([2]; human): 1 | Hypomagnesemia grade 1 (non-DLT) ([2]; human): 2 | Hypophosphatemia grade 2 (non-DLT) ([2]; human): 1 | Increased AST grade 1 (non-DLT) ([2]; human): 1 | Increased bilirubin grade 1 (non-DLT) ([2]; human): 1 | Nausea grade 1 (non-DLT) ([2]; human): 1 | Rash/Desquamation grade 1 (non-DLT) ([2]; human): 2 | Anorexia grade 1 (non-DLT) ([2]; human, 28 days): 1 | Anorexia grade 2 (non-DLT) ([2]; human, 28 days): 1 | Diarrhea grade 1 (non-DLT) ([2]; human, 28 days): 2 | Diarrhea grade 2 (non-DLT) ([2]; human, 28 days): 1 | Fatigue grade 2 (non-DLT) ([2]; human, 28 days): 2 | Hyperglycemia grade 1 (non-DLT) ([2]; human, 28 days): 2 | Increased ALT grade 1 (non-DLT) ([2]; human, 28 days): 1 | Increased ALT grade 2 (non-DLT) ([2]; human, 28 days): 1 | Increased AST grade 1 (non-DLT) ([2]; human, 28 days): 3 | Increased AST grade 2 (non-DLT) ([2]; human, 28 days): 1 | Increased bilirubin grade 1 (non-DLT) ([2]; human, 28 days): 2 | Nausea grade 1 (non-DLT) ([2]; human, 28 days): 2 | recommended phase II dose ([2]; human, 28 days): 150 mg/m^2/dose | Headache grade 1 (non-DLT) ([2]; human, 28 days (course 1)): 1 | Headache grade 2 (non-DLT) ([2]; human, 28 days (course 1)): 1 | Hyperglycemia grade 2 (non-DLT) ([2]; human, 28 days (course 1)): 1 | Hypoalbuminemia grade 1 (non-DLT) ([2]; human, 28 days (course 1)): 1 | Hypoalbuminemia grade 2 (non-DLT) ([2]; human, 28 days (course 1)): 1 | Hypocalcemia grade 1 (non-DLT) ([2]; human, 28 days (course 1)): 1 | Hypocalcemia grade 2 (non-DLT) ([2]; human, 28 days (course 1)): 1 | Hypokalemia grade 1 (non-DLT) ([2]; human, 28 days (course 1)): 2 | Hypomagnesemia grade 1 (non-DLT) ([2]; human, 28 days (course 1)): 1 | Hypomagnesemia grade 3 (non-DLT) ([2]; human, 28 days (course 1)): 1 | Hyponatremia grade 1 (non-DLT) ([2]; human, 28 days (course 1)): 2 | Hypophosphatemia grade 2 (non-DLT) ([2]; human, 28 days (course 1)): 1 | Hypophosphatemia grade 3 (non-DLT) ([2]; human, 28 days (course 1)): 1 | Proteinuria grade 1 (non-DLT) ([2]; human, 28 days (course 1)): 1 | Proteinuria grade 2 (non-DLT) ([2]; human, 28 days (course 1)): 1 | dose-limiting ALT/AST elevation [2]: No dose-limiting ALT/AST elevation | half-life (clinical): ≥ 24 h | AUC(0-t) (clinical; 130 mg/m2, AUC0–24h, day 1): 20000 ng·h/mL | Tmax (clinical; 130 mg/m2, Tmax, day 1): 7.9 h | Tmax (clinical; 150 mg/m2, Tmax, steady state): 3 h | AUC(0-t) (clinical; 200 mg/m2, AUC0–24h, day 1): 19000 ng·h/mL | Cmax (clinical; 200 mg/m2, Cmax, day 1): 1000 ng/mL | AUC(0-t) (clinical; 200 mg/m2, median steady-state AUC0–12h): 55700 ng·h/mL | AUC(0-t) (clinical; 250 mg/m2, AUC0–24h, day 1): 27600 ng·h/mL | Tmax (clinical; 250 mg/m2, Tmax, day 1): 8 h | Tmax (clinical; […]2, Tmax, day 1): 5 h | AUC(0-t) (clinical; mean (SD) AUC0–12h steady state): 61200 ng·h/mL | Cmax (clinical; po, 130 mg/m2, Cmax, day 1): 1500 ng/mL | AUC(0-t) (clinical; po, 150 mg/m2, AUC0–12h, steady state): 49700 ng·h/mL | AUC(0-t) (clinical; po, 150 mg/m2, AUC0–24h, day 1): 28300 ng·h/mL | Cmax (clinical; po, 150 mg/m2, Cmax, day 1): 1900 ng/mL | AUC(0-t) (clinical; po, 200 mg/m2, AUC0–12h, steady state): 60200 ng·h/mL | AUC(0-t) (clinical; po, 200 mg/m2, AUC0–24h, day 1): 27300 ng·h/mL | Cmax (clinical; po, 200 mg/m2, Cmax, day 1): 1600 ng/mL | Cmax (clinical; po, 200 mg/m2, Cmax, steady state): 8300 ng/mL | Tmax (clinical; po, 200 mg/m2, Tmax, steady state): 3.4 h | Tmax (clinical; po, […]2, Tmax, day 1): 5 h | CEC number, change [3]: no change | objective response (advanced HCCs): 2% | Tmax, steady state [4]: 0.8 h | objective response (RCCs): 10% | incidence of grade 2 and 3 hand foot skin reactions and rashes ([5]; children with solid tumors, sorafenib in combination): 5 of 19 | recommended phase II dose ([5]; twice daily, with bevacizumab and cyclophosphamide): 90 mg/m^2/dose | plasma endoglin concentration, change (endoglin): no change | CEPC number, change [6]: no change | bone marrow blasts [7]: less than 5% | sorafenib steady-state (day 7) concentration (refractory leukemias; 150 mg/m^2, children with refractory leukemia): 7.0 ± 1.8 µg/mL | sorafenib steady-state (day 7) concentration (refractory leukemias; 200 mg/m^2, children with refractory leukemia): 6.5 ± 3.6 µg/mL | patients with complete remission (refractory leukemias; after combination therapy): 6 | patients with decreased blast percentages (refractory leukemias; by day 8): 10 of 12 | conversion of sorafenib to the active N-oxide metabolite (refractory leukemias; children vs that reported in adult patients): much higher rate of conversion | incidence of grade 2 and 3 hand foot skin reactions and rashes (refractory leukemias; children with leukemia, sorafenib in combination): 8 of 12 | AUC0–12h ([8]; adults, 400-mg dose after multiple doses): 47800 to 76500 ng·h/mL | adults requiring dose reductions with chronic administration ([8]; mostly due to skin toxicity and diarrhea): Up to a third | recommended fixed dose ([8]; twice daily, adults): 400 mg | plasma VEGF concentration, change (plasma VEGF): no change | Alopecia grade 1 (non-DLT) ([9]; human): 1 | Anorexia grade 2 (non-DLT) ([9]; human): 1 | Fatigue grade 2 (non-DLT) ([9]; human): 2 | Fever grade 1 (non-DLT) ([9]; human): 1 | Hand-foot skin reaction grade 2 (non-DLT) ([9]; human): 2 | Headache grade 1 (non-DLT) ([9]; human): 1 | Headache grade 2 (non-DLT) ([9]; human): 1 | Hemoglobin grade 1 (non-DLT) ([9]; human): 4 | Hemoglobin grade 2 (non-DLT) ([9]; human): 1 | Hemoglobin grade 3 (non-DLT) ([9]; human): 1 | Hypertension grade 1 (non-DLT) ([9]; human): 3 | Hypertension grade 3 (non-DLT) ([9]; human): 1 | Hypoalbuminemia grade 1 (non-DLT) ([9]; human): 1 | Hypocalcemia grade 1 (non-DLT) ([9]; human): 3 | Hypophosphatemia grade 2 (non-DLT) ([9]; human): 1 | Increased ALT grade 2 (non-DLT) ([9]; human): 1 | Increased AST grade 2 (non-DLT) ([9]; human): 1 | Increased bilirubin grade 1 (non-DLT) ([9]; human): 1 | Increased bilirubin grade 2 (non-DLT) ([9]; human): 1 | Leukopenia grade 1 (non-DLT) ([9]; human): 4 | Leukopenia grade 2 (non-DLT) ([9]; human): 2 | Leukopenia grade 3 (non-DLT) ([9]; human): 2 | Lymphopenia grade 1 (non-DLT) ([9]; human): 2 | Lymphopenia grade 2 (non-DLT) ([9]; human): 2 | Lymphopenia grade 3 (non-DLT) ([9]; human): 1 | Nausea grade 3 (non-DLT) ([9]; human): 1 | Neutropenia grade 1 (non-DLT) ([9]; human): 3 | Neutropenia grade 2 (non-DLT) ([9]; human): 1 | Neutropenia grade 3 (non-DLT) ([9]; human): 2 | Pain, Other (jaw) grade 1 (non-DLT) ([9]; human): 1 | Thrombocytopenia grade 2 (non-DLT) ([9]; human): 1 | Vomiting grade 1 (non-DLT) ([9]; human): 1 | Vomiting grade 3 (non-DLT) ([9]; human): 1 | patients who developed a DLT after cycle 1 ([9]; human): 5 | Alopecia grade 1 (non-DLT) ([9]; human, 28 day): 2 | Anorexia grade 1 (non-DLT) ([9]; human, 28 day): 4 | Diarrhea grade 2 (non-DLT) ([9]; human, 28 day): 1 | Fatigue grade 1 (non-DLT) ([9]; human, 28 day): 4 | Fatigue grade 2 (non-DLT) ([9]; human, 28 day): 2 | Fever grade 1 (non-DLT) ([9]; human, 28 day): 2 | Hand-foot skin reaction grade 1 (non-DLT) ([9]; human, 28 day): 1 | Hand-foot skin reaction grade 2 (non-DLT) ([9]; human, 28 day): 1 | Headache grade 1 (non-DLT) ([9]; human, 28 day): 3 | Headache grade 2 (non-DLT) ([9]; human, 28 day): 1 | Hypoalbuminemia grade 1 (non-DLT) ([9]; human, 28 day): 1 | Hypoalbuminemia grade 2 (non-DLT) ([9]; human, 28 day): 1 | Hypocalcemia grade 1 (non-DLT) ([9]; human, 28 day): 3 | Hypophosphatemia grade 2 (non-DLT) ([9]; human, 28 day): 2 | Increased ALT grade 2 (non-DLT) ([9]; human, 28 day): 1 | Increased AST grade 2 (non-DLT) ([9]; human, 28 day): 1 | Increased bilirubin grade 2 (non-DLT) ([9]; human, 28 day): 1 | Lymphopenia grade 1 (non-DLT) ([9]; human, 28 day): 1 | Lymphopenia grade 3 (non-DLT) ([9]; human, 28 day): 1 | Mucositis/stomatitis grade 1 (non-DLT) ([9]; human, 28 day): 2 | Nausea grade 2 (non-DLT) ([9]; human, 28 day): 2 | Rash/Desquamation grade 1 (non-DLT) ([9]; human, 28 day): 3 | Rash/Desquamation grade 2 (non-DLT) ([9]; human, 28 day): 1 | Thrombocytopenia grade 1 (non-DLT) ([9]; human, 28 day): 4 | Thrombocytopenia grade 2 (non-DLT) ([9]; human, 28 day): 1 | Hand-foot skin reaction grade 1 (non-DLT) ([9]; human, 28 days): 1 | Hemoglobin grade 1 (non-DLT) ([9]; human, 28 days): 3 | Hemoglobin grade 2 (non-DLT) ([9]; human, 28 days): 1 | Hemoglobin grade 3 (non-DLT) ([9]; human, 28 days): 2 | Hypertension grade 1 (non-DLT) ([9]; human, 28 days): 4 | Hypertension grade 2 (non-DLT) ([9]; human, 28 days): 1 | Hyponatremia grade 1 (non-DLT) ([9]; human, 28 days): 3 | Leukopenia grade 1 (non-DLT) ([9]; human, 28 days): 5 | Leukopenia grade 2 (non-DLT) ([9]; human, 28 days): 2 | Leukopenia grade 3 (non-DLT) ([9]; human, 28 days): 2 | Pain, Other (forearm) grade 1 (non-DLT) ([9]; human, 28 days): 1 | Rash/Desquamation grade 2 (non-DLT) ([9]; human, 28 days): 3 | recommended phase II dose ([9]; human, 28 days): 200 mg/m^2/dose | Lymphopenia grade 1 (non-DLT) ([9]; human, 28 days (course 1)): 2 | Lymphopenia grade 2 (non-DLT) ([9]; human, 28 days (course 1)): 1 | Lymphopenia grade 3 (non-DLT) ([9]; human, 28 days (course 1)): 2 | Neutropenia grade 1 (non-DLT) ([9]; human, 28 days (course 1)): 5 | Neutropenia grade 2 (non-DLT) ([9]; human, 28 days (course 1)): 1 | Neutropenia grade 3 (non-DLT) ([9]; human, 28 days (course 1)): 2 | Thrombocytopenia grade 1 (non-DLT) ([9]; human, 28 days (course 1)): 4 | bony abnormalities on serial plain radiographs [9]: No bony abnormalities | tumor shrinkage (refractory solid tumors; 1 patient (#24) with synovial sarcoma, after cycle 1, progression after cycle 2): more than 40% | objective responses (refractory solid tumors; patients with solid tumors): no confirmed objective responses | patients with stable disease for 4 or more cycles (refractory solid tumors; solid tumor patients): 14 | PlGF, change [10]: increase | in vivo antitumor activity (multiple tumor types): growth inhibition observed in multiple tumor types

O=P1(N(CCCl)CCCl)NCCCO1 (centres unmarked) [cyclophosphamide]
recommended phase II dose ([5]; once daily, with sorafenib and bevacizumab): 50 mg/m^2

Reference: PMC4008314 (Clinical cancer research : an official journal of the …, 2012)
